Measured values published in ChEMBL document CHEMBL3608220, “Isolation and structure elucidation of bioactive compounds from the roots of the Tunisian Ononis angustissima L” (Bioorg Med Chem Lett, 2015).
≈ marks a conversion by molar mass, not a printed value. Calls of active or inactive are those of the source. No cut-off for these calls is given here.

Legend:
[1] = Antioxidant activity assessed as DPPH radical scavenging activity after 30 mins; type: physicochemical
[2] = Antioxidant activity assessed as reduction of Fe3+ to Fe2+ after 20 mins; type: physicochemical
[3] = Antioxidant activity assessed as ABTS radical scavenging activity after 6 mins; type: physicochemical
[4] = Cytotoxicity against rat PC12 cells assessed as cell viability at 75 uM after 24 hrs by MTT assay relative to control; type: cell-based; conditions: pc-12, 24 h
PC-12 [5] = assay: (§1) Neuroprotective activity against amyloid beta (25 to 35)-induced toxicity in rat PC12 cells assessed as increase in cell viability at 30 uM after 24 hrs by MTT assay relative to control; type: functional
[6] = Cytotoxicity against rat PC12 cells assessed as cell viability at 150 uM after 24 hrs by MTT assay relative to control; type: cell-based; conditions: pc-12, 24 h
[7] = Cytotoxicity against rat PC12 cells assessed as cell viability at 30 uM after 24 hrs by MTT assay; type: cell-based; conditions: pc-12, 24 h
PC-12 [8] = assay: (§2) Neuroprotective activity against amyloid beta (25 to 35)-induced toxicity in rat PC12 cells assessed as increase in cell viability at 75 uM after 24 hrs by MTT assay relative to control; type: functional
PC-12 [9] = assay: Neuroprotective activity against amyloid beta (25 to 35)-induced toxicity in rat PC12 cells assessed as increase in cell viability after 24 hrs by MTT assay; type: functional, cell-based
[10] = as §1; type: functional, PC-12
[11] = as §2; type: functional, PC-12

IC50 [1] [µg/mL] | IC50 [2] [µg/mL] | IC50 [3] [µg/mL] | Structure (SMILES) | Activity [4] | Activity (PC-12 [5]) | Activity [6] | Activity [7] | Activity (PC-12 [8]) | Activity (PC-12 [9]) | Activity [10] [%] | Activity [11] [%]
34.17 (≈ 79.4 µM) | 57.21 (≈ 133 µM) | 71.3 (≈ 166 µM) | COc1ccc(-c2coc3cc(O[C@@H]4O[C@H](CO)[C@@H](O)[C@H](O)[C@H]4O)ccc3c2=O)cc1 [ONONIN] | – | – | – | – | – | – | – | –
43.51 (≈ 162 µM) | 62.57 (≈ 233 µM) | 77.42 (≈ 289 µM) | COc1ccc(-c2coc3cc(O)ccc3c2=O)cc1 [FORMONONETIN] | – | – | – | – | – | – | – | –
25.67 (≈ 54.1 µM) | 46.93 (≈ 98.9 µM) | 61.39 (≈ 129 µM) | COc1ccc(C2=CC(=O)OC2Cc2ccc(O)cc2)c(O[C@@H]2O[C@H](CO)[C@@H](O)[C@H](O)[C@H]2O)c1 (some centres undefined) | Toxic | inactive | Toxic | Non-toxic | – | – | – | –
20.45 (≈ 44.2 µM) | – | – | COc1cc(O[C@@H]2O[C@H](CO)[C@@H](O)[C@H](O)[C@H]2O)c(O)cc1-c1coc2cc(O)ccc2c1=O | – | – | – | – | – | – | – | –
45.91 (≈ 170 µM) | 82.37 (≈ 305 µM) | 86.29 (≈ 319 µM) | COc1ccc2c(c1)O[C@H]1c3ccc(O)cc3OC[C@@H]21 | Non-toxic | – | Toxic | Non-toxic | – | Dose-dependent effect | 18 | 30
9.23 (≈ 41.9 µM) | 41.64 (≈ 189 µM) | – | Cc1cc(C(C)(C)C)c(O)c(C(C)(C)C)c1 [BUTYLATED HYDROXYTOLUENE] | – | – | – | – | – | – | – | –

Further lines, the compound ahead of its results:

Structure (SMILES) | IC50 [1] [µg/mL] | IC50 [2] [µg/mL] | IC50 [3] [µg/mL] | Activity [4] | Activity (PC-12 [5]) | Activity [6] | Activity [7] | Activity (PC-12 [8]) | Activity (PC-12 [9]) | Activity [10] [%] | Activity [11] [%]
O=C1C=C(c2ccc(O)cc2O[C@@H]2O[C@H](CO)[C@@H](O)[C@H](O)[C@H]2O)C(Cc2ccc(O)cc2)O1 (some centres undefined) | 21.43 (≈ 46.5 µM) | 39.81 (≈ 86.5 µM) | 46.72 (≈ 101 µM) | Non-toxic | inactive | Toxic | Non-toxic | inactive | – | – | –
OC[C@H]1O[C@@H](Oc2ccc3c(c2)OCC2c4cc5c(cc4OC32)OCO5)[C@H](O)[C@@H](O)[C@@H]1O (some centres undefined) | 28.06 (≈ 62.9 µM) | 70.37 (≈ 158 µM) | 63.21 (≈ 142 µM) | Toxic | inactive | Toxic | Non-toxic | – | – | – | –
O=C(O)CC(=O)OC[C@H]1O[C@@H](Oc2ccc3c(c2)OCC2c4cc5c(cc4OC32)OCO5)[C@H](O)[C@@H](O)[C@@H]1O (some centres undefined) | 25.93 (≈ 48.7 µM) | 64.31 (≈ 121 µM) | 60.64 (≈ 114 µM) | – | – | – | – | – | – | – | –
Oc1ccc2c(c1)OC[C@H]1c3cc4c(cc3O[C@@H]21)OCO4 [MAACKIAIN] | 24.48 (≈ 86.1 µM) | – | – | Non-toxic | – | Toxic | Non-toxic | – | Dose-dependent effect | 5 | 15
O=c1c(O)c(-c2ccc(O)c(O)c2)oc2cc(O)cc(O)c12 [QUERCETIN] | 4.89 (≈ 16.2 µM) | – | 6.94 (≈ 23 µM) | – | – | – | – | – | – | – | –
O=C1C=C(c2ccc(O)cc2O)C(Cc2ccc(O)cc2)O1 (centres undefined) | 19.53 (≈ 65.5 µM) | 38.52 (≈ 129 µM) | 28.29 (≈ 94.8 µM) | Toxic | inactive | Toxic | Non-toxic | – | – | – | –
